Source: PMC8124228, “New Hybrids Based on Curcumin and Resveratrol: Synthesis, Cytotoxicity and Antiproliferative Activity against Colorectal Cancer Cells” (Molecules, 2021)
Like-named read-outs stand apart in the source and are kept apart here.

How the values were obtained:
[1] = tested on: SW480 human colon adenocarcinoma cells; assay: Sulforhodamine B (SRB) cytotoxicity assay, SW480; type: cell-based; conditions: for SI (selectivity index): IC50 CHO-K1 / IC50 SW480; for IC50: Homo sapiens, SRB, mean ± SE
Experimental: (§1) To determine the cytotoxic effect of the synthesized hybrids, they were evaluated against SW480 human colon adenocarcinoma cells, its metastatic derivative SW620 and the non-malignant CHO-K1 cell line, through the sulforhodamine B assay. In this experiment, 5-FU was also included as the reference drug, as well as the parental subunits (curcumin and resveratrol) and the equimolar mixture of these. Cytotoxicity was reported as 50% inhibitory concentration (IC50 values).
(§2) Biological assays were performed using an adenocarcinoma colon cancer cell line (SW480), its metastatic derivative (SW620) and non-malignant cells (CHO-K1). These were obtained from The European Collection of Authenticated Cell Cultures (ECACC, England) and maintained in Dulbecco’s Modified Eagle Medium, supplemented with 10% heat-inactivated (56 °C) horse serum, 1% penicillin/streptomycin and 1% non-essential amino acids (Gibco Invitrogen, Carlsbad, USA). For all experiments, horse serum was reduced to 3%, and the medium was supplemented with […], 5 ng/mL selenium and […] (ITS-defined medium; Gibco, Invitrogen, Carlsbad, CA, USA).
(§3) Cytotoxicity of the synthesized hybrids, lead and reference compounds was evaluated through Sulforhodamine B (SRB) assay, a colorimetric test that is based on staining of total cellular protein of adherent cells. Cells were seeded to a final density of 20,000 cells/well in 96-well tissue culture plates and incubated at 37 °C in a humidified atmosphere at 5% CO2. All cultures were allowed to grow for 24 h, and afterward they were treated with DMSO (vehicle control 1%) or increasing concentrations (0.01–200 µM) of the synthesized hybrids, as well as curcumin and resveratrol (lead compounds), the equimolar mixture of these and 5-fluorouracil (5-FU; the standard drug). After treatment, cells were fixed with trichloroacetic acid (50% v/v) (MERCK) for a period of 1 h at 4 °C. Cell proteins were determined by staining with 0.4% (w/v) SRB (Sigma-Aldrich, United States), and then they were washed with 1% acetic acid for the removal of unbound SRB and left for air-drying. Protein bound SRB was solubilized in 10 mM Tris-base and the absorbance was measured at 492 nm in a microplate reader (Mindray MR-96A). All experiments were performed at least in triplicate.

[2] = tested on: SW620 cells (metastatic derivative of SW480); assay: Sulforhodamine B (SRB) cytotoxicity assay, SW620; type: cell-based, human; conditions: for SI (selectivity index): IC50 CHO-K1 / IC50 SW620; for IC50: Homo sapiens, SW-620, SRB, mean ± SE
Experimental: as §1, §2, §3

[3] = tested on: non-malignant CHO-K1 cell line; assay: Sulforhodamine B (SRB) cytotoxicity assay, non-malignant cells; type: cell-based; conditions: Cricetulus griseus, mean ± SE
Experimental: as §1, §2, §3

[4] = tested on: SW620 cell line; assay: Antiproliferative activity (SRB, 2-8 days), SW620; type: cell-based, human; conditions: Homo sapiens, vehicle control = 100%, read-out: Viability (%) ± SE; for viability at 10 µM: SW620, 10 µM; for viability at 160 µM: SW620, 160 µM
Experimental: With the aim of testing the antiproliferative effect of the most cytotoxic and selective hybrids (3e and 3i for SW480 and 3a, 3e and 3k for SW620), they were analyzed through a longer period. According to the results in comparison with the control, it was observed that the activity was time- and concentration-dependent, as evidenced by the decrease in cell viability in the highest concentrations (Table 2). […] Similar results were presented in a previous investigation by Herrera-R et al. (2018), reporting the antiproliferative effect and morphological changes in SW480 cells after treatment with different hybrids using a stilbene moiety, which highlights the potential of this scaffold in the approach to design molecules with potential activity against CRC.
Briefly, cells were seeded to a final density of 2500 cells/well in 96-well tissue culture plates and incubated in the same conditions described for cytotoxicity. […] Culture media was replaced every 48 h. After each incubation time, cells were fixed, stained and read as previously described for this technique.

Row | Compound | melting point [°C] | SI (selectivity index) ([1]; 24 h) | SI (selectivity index) ([1]; 48 h) | IC50 ([1]; SW480, 24 h, 24 h) [µM] | IC50 ([1]; SW480, 48 h, 48 h) [µM] | SI (selectivity index) ([2]; 24 h) | SI (selectivity index) ([2]; 48 h) | IC50 ([2]; 24 h) [µM] | IC50 ([2]; 48 h) [µM] | IC50 ([3]; 24 h) [µM] | IC50 ([3]; 48 h) [µM] | viability at 10 µM ([4]; SW-620, 48 h, day 2) [%] | viability at 160 µM ([4]; SW-620, 48 h, day 2) [%] | viability at 10 µM ([4]; SW-620, 96 h, day 4) [%] | viability at 160 µM ([4]; SW-620, 96 h, day 4) [%] | viability at 10 µM ([4]; SW-620, 144 h, day 6) [%] | viability at 160 µM ([4]; SW-620, 144 h, day 6) [%] | viability at 10 µM ([4]; SW-620, 192 h, day 8) [%] | viability at 160 µM ([4]; SW-620, 192 h, day 8) [%]
1 | COc1ccc(/C=C/c2ccc(C(=O)/C=C/c3ccc(O)c(OC)c3)cc2)cc1 [Hybrid 3b, (E)-3-(4-hydroxy-3-methoxyphenyl)-1-(4-((E)-4-methoxystyryl)phenyl)prop-2-en-1-one] | 187 to 190 |  |  |  |  |  |  |  |  |  |  |  |  |  |  |  |  |  | 
2 | COc1cc(/C=C/C(=O)c2ccc(/C=C/c3cc(OC)c(O)c(OC)c3)cc2)ccc1O [Hybrid 3l, (E)-1-(4-((E)-4-Hydroxy-3,5-dimethoxystyryl)phenyl)-3-(4-hydroxy-3-methoxyphenyl)prop-2-en-1-one] | 86 to 88 | 1.42 | 0.48 | 63.5 ± 8.16 | 51.8 ± 5.85 | 2.63 | 0.83 | 34.2 ± 5.09 | 29.8 ± 3.68 | 90 ± 8.55 | 24.8 ± 5.53 |  |  |  |  |  |  |  | 
3 | COc1cc(/C=C/C(=O)c2ccc(/C=C/c3c(OC)cccc3OC)cc2)ccc1O [Hybrid 3g, (E)-1-(4-((E)-2,6-Dimethoxystyryl)phenyl)-3-(4-hydroxy-3-methoxyphenyl)prop-2-en-1-one] | 87 to 90 | 11.1 | 0.83 | 8.55 ± 2.47 | 39.1 ± 5.68 | 2.82 | 1.17 | 33.7 ± 4.2 | 27.6 ± 5.21 | 95 ± 1.67 | 32.4 ± 5.16 |  |  |  |  |  |  |  | 
4 | COc1cc(/C=C/C(=O)CC(=O)/C=C/c2ccc(O)c(OC)c2)ccc1O [Curcumin] |  | 0.24 | 0.40 |  |  | 0.12 | 1.63 |  |  |  |  |  |  |  |  |  |  |  | 
5 | COc1cc(/C=C/C(=O)c2ccc(/C=C/c3ccc(O)cc3)cc2)ccc1O [Hybrid 3a, (E)-3-(4-Hydroxy-3-methoxyphenyl)-1-(4-((E)-4-hydroxystyryl)phenyl)prop-2-en-1-one] | 119 to 120 | 1.28 | 0.54 | 96 ± 2.76 | 95.1 ± 7.02 | 0.74 |  | 166 ± 11.8 | 20.2 ± 1.21 | 122 ± 15.5 | 51.6 ± 10.5 | 71.9 ± 1.9 | 16.1 | 10.7 ± 4.7 | 0 | 2.5 ± 0.5 | 0 | 0.2 ± 0.3 | 0
6 | COc1cc(/C=C/C(=O)c2ccc(/C=C/c3ccc([N+](=O)[O-])cc3)cc2)ccc1O [Hybrid 3c, (E)-3-(4-hydroxy-3-methoxyphenyl)-1-(4-((E)-4-nitrostyryl)phenyl)prop-2-en-1-one] | 227 to 230 | >100 | >15 | 27.5 ± 2 | > 200 |  |  | > 3000 | > 3000 | > 3000 | > 3000 |  |  |  |  |  |  |  | 
7 | Oc1ccc(/C=C/c2cc(O)cc(O)c2)cc1 [Resveratrol] |  | 0.77 | 0.52 | 154 ± 10.6 | 123 ± 4.48 | 0.22 | 0.45 | 549 ± 38.5 | 143 ± 4.03 | 118 ± 8.54 | 64 ± 8.92 |  |  |  |  |  |  |  | 
